As usually defined, the pKa is the pH at which an ionisable group is half protonated. What is called IC50 is the concentration needed to halve the response being measured.

Where “and” joins values, the source holds several entries; their conditions need not be identical. Equal entries are not always repeated. Calls of active or inactive are those of the source. No cut-off for these calls is given here.

Series [1] has as its target T1, Purine nucleoside phosphorylase (Bos taurus) (UniProt P55859).
T1 sequence (whole entry): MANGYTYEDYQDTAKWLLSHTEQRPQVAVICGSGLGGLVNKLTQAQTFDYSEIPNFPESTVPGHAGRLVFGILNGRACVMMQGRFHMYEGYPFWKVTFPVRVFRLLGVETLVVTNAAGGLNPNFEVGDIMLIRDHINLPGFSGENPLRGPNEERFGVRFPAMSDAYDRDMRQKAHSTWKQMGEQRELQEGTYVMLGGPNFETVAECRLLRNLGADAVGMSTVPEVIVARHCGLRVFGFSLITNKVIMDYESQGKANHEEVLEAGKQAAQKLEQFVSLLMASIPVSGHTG
Particulars: Spleen.

Series [2] has as its target T2, Purine nucleoside phosphorylase (Bos taurus, UniProt P55859).
T2 sequence (P55859 whole entry): T1 sequence (whole entry)

Series [3] concerns the target T1, Purine nucleoside phosphorylase (Bos taurus). Particulars: Spleen. This is another data set of the same source.
Series [4] can be described thus: Dissociation constant, pKa at 2 mg by spectrophotometry.
The target in series [5] is T3, Purine nucleoside phosphorylase (Homo sapiens) (UniProt P00491).
T3 sequence (whole entry): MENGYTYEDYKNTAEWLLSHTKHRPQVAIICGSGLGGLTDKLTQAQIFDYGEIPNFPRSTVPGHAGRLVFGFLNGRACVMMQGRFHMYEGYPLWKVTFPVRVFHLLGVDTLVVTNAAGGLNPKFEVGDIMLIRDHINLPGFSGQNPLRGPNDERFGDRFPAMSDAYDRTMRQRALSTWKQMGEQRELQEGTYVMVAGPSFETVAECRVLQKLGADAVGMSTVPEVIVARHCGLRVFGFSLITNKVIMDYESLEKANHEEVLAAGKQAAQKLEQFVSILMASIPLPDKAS
Particulars: 4.99 to 18.71 uM.

In series [6] the target is T4, Purine nucleoside phosphorylase (Homo sapiens, UniProt P00491).
T4 sequence (P00491 whole entry): T3 sequence (whole entry)
Kind of series: Inhibition of human erythrocyte PNP assessed as inhibition of 7-methylguanosine phosphorolysis after 50 mins by spectrophotometry in presence of 1 mM inorganic phosphate. Particulars: read-out: Ki(app).

The target of series [7] is T2, Purine nucleoside phosphorylase. Briefly: Inhibition of calf spleen PNP assessed as inhibition of 7-methylguanosine phosphorolysis after 50 mins by spectrophotometry in presence of 1 mM inorganic phosphate. The following applies: read-out: Ki(app).
Series [8] concerns the target T4, Purine nucleoside phosphorylase. Kind of series: Inhibition of human erythrocyte PNP assessed as inhibition of 25 uM 7-methylguanosine phosphorolysis by spectrophotometry in presence of 1 mM inorganic phosphate.

The molecule `Nc1nc(O)c2ncn(CCCCC(F)(F)P(=O)(O)O)c2n1` came in with a Kieq in series [1] of 0.72 nM.
With `O=c1[nH]cnc2c([C@@H]3N[C@H](CO)[C@@H](O)[C@H]3O)c[nH]c12` [FORODESINE], the Ki in series [2] stood at 41 nM. In series [3], the Kieq amounted to 0.023 nM.
Take `Cn1c(N)nc2cc[nH]c2c1=O`: in series [4], the pKa is 5.1.
Take `Nc1nc2c(CCCCC(F)(F)P(=O)(O)O)c[nH]c2c(=O)[nH]1`: the Kieq in series [1] turned out to be 0.085 nM. For the same molecule, in series [5], the inhibition result was “Active”.
For the molecule `Nc1nc2c(CCCCCCCC(F)(F)P(=O)(O)O)c[nH]c2c(=O)[nH]1`, the Ki was 5.6 nM in series [6]; 6.1 nM and 0.94 nM in series [7].
In the case of `CCOP(=O)(OCC)C(F)(F)CCCc1c[nH]c2c(=O)[nH]c(N)nc12`, the 50% inhibitory concentration (IC50) in series [8] turned out to be 170 nM.
In series [4], `Cn1c(N)nc2ccn(C)c2c1=O` yielded a pKa of 10.6.

For the origin of these results see ChEMBL document CHEMBL1157648, “Structural-based design and synthesis of novel 9-deazaguanine derivatives having a phosphate mimic as multi-substrate analogue inhibitors for mammalian PNPs” (Bioorg Med Chem, 2010).
